In brackets after ≈: the same amount, converted by molar mass. Where two headings read alike, the source gives them in different places.
Experiments:
[1] = system: L. mexicana intracellular amastigotes; test: Growth inhibition of intracellular amastigotes in J774A.1 macrophages (Renilla luciferase luminescence); assay type: cell-based; details: Leishmania mexicana, J774.A1; intracellular amastigotes in J774A.1 macrophages; mean ± standard deviation, n = 2; read-out: L. mexicana EC50
Method: (§1) L. mexicana (MNYZ/BZ/62/M379) or L. donovani (LdBob strain) parasites expressing the Renilla luciferase gene from a rRNA gene locus were used to infect J774A.1 macrophages. Growth of intracellular amastigotes was measured using a luminescence assay, as detailed previously. The growth inhibitor activities of compounds were tested against bloodstream form Lister 427 T. brucei in 96-well plates containing 1 X 10^5 parasites per well in 0.2 ml HMI-11 medium (Gibco/Thermo Fisher). Compounds (2 μl volumes in DMSO) were added to the parasites using serial 3-fold dilutions to cover a range of concentrations from about 10 μM to 1 nM. After 48 h incubation at 37°C under a humidified 5% CO2 atmosphere, 10 μl of 10% Triton X-100 and 100 X stock SYBR Green I (Sigma-Aldrich) in PBS was added and florescence measured (excitation 497 nm; emission 520 nm) after 1 h incubation in the dark using a Spectra Max Gemini XPS fluorimeter (Molecular Devices). Data were log transformed and EC50 values were determined using GraphPad Prism 6 (GraphPad Software). In the absence of growth inhibiting compounds, the parasites grew from an initial density of 5 X 10^5 cells/mL to ~3 X 10^6 cells/mL.
[…]. These were chosen as candidates for further study. From these 230 compounds, we were able to repurchase 113 from commercial vendors. These compounds were characterized for purity by ultra-performance liquid chromatography using ultraviolet spectroscopy and evaporative light scattering detection and identity by mass spectrometry. All validated compounds were profiled for activity against intracellular amastigotes, the disease-causing stage of the life cycle. Intracellular amastigote activity was determined using a strain of L. mexicana in which the Renilla luciferase gene was integrated into the rRNA locus, allowing robust expression for measuring amastigote growth within cultured macrophages. All 113 compounds were applied at 1 μM concentration for 96 h to J774A.1 macrophages infected with L. mexicana luciferase-expressing parasites. […].
Next, we generated dose-response curves for these 55 compounds against intracellular amastigotes and independently against J774A.1 macrophages to establish the relative potency of each compound against the pathogen and its host cell. […]. The nine remaining compounds, each representing a unique chemical scaffold (compounds 1–9, Fig 3), were designated top hits (Fig 1).

[2] = system: L. donovani intracellular amastigotes; test: as above; assay type: cell-based; details: Leishmania donovani, J774.A1; intracellular amastigotes in J774A.1 macrophages; mean ± standard deviation, n = 2; read-out: L. donovani EC50
Method: as §1

[3] = system: bloodstream form Lister 427 T. brucei; test: Growth inhibition of T. brucei bloodstream forms (SYBR Green I); assay type: cell-based; details: bloodstream form, mean ± standard deviation, n = 2, read-out: T. brucei EC50
Method: as §1

[4] = system: J774A.1 macrophages; test: Cytotoxicity to J774A.1 macrophages (dose-response); assay type: cell-based; details: Mus musculus, J774.A1; host macrophage; tested up to 10 μM; mean ± standard deviation, n = 2; read-out: J774A.1 EC50
Method: Cytotoxicity of compounds to J774.A1 macrophages was determined by dose-response curves as described previously. In the absence of growth inhibitors or DMSO, the macrophages increased in number ~6-fold over 96 h in Minimum Essential Medium, employed for both macrophage infections and the toxicity assays.

[5] = system: Trypanosoma cruzi CL Brener epimastigotes; test: Growth inhibition of Trypanosoma cruzi epimastigotes (SYBR Green); assay type: cell-based; details: Trypanosoma cruzi; 72 h, 10 μM to 1 nM; read-out: T. cruzi epimastigotes EC50
Method: Trypanosoma cruzi CL Brener epimastigotes were obtained from Dr. Fred Buckner of the Department of Medicine at the University of Washington. T. cruzi epimastigotes were grown in liver infusion tryptose medium and seeded in a 96-well plate at 10^5 epimastigotes per well in 100 μl medium. For each well, 1 μl of compound in DMSO at 100X the desired final concentration was added. Epimastigotes were exposed to a range of compound concentrations from 10 μM to 1 nM to determine EC50. Plates were incubated at 26°C for 72 h, then 10 μl 50X SYBR Green in 1% Triton X-100 was added to each well followed by incubation with shaking at room temperature for 30 minutes. Fluorescence was read (excitation 485nm, emission 535nm) with the Victor^2 multiplate reader (PerkinElmer). All data processing and visualization were performed using GraphPad Prism 6 software.

[6] = Solubility in aqueous buffer; assay type: physicochemical; details: pH 7.4, aqueous buffer, kinetic from dmso stock
Method: Solubility assays were carried out on a Biomek FX lab automation workstation (Beckman Coulter, Inc., Fullerton, CA) using μSOL Evolution software (pION Inc.). Compound stock (10 mM in DMSO, 10 μL) was added to 1-propanol (190 μL) to make a reference stock plate. Reference stock solution (5 μL) was mixed with 1-propanol (70 μL) and citrate phosphate buffered saline (pH 7, 75 μL) to make the reference plate which was then measured with UV detection. Test compound stock (10 mM, 6 μL) was added to citrate phosphate buffered saline (594 μL) in a 96-well storage plate and mixed. […] The suspension was then filtered through a 96-well filter plate (pION Inc.). Filtrate (75 μL) was mixed with 1-propanol (75 μL) to make the sample plate, and the UV spectrum (250 nm −500 nm) of the sample plate was recorded. Calculation of solubility was carried out using μSOL Evolution software based on the AUC of the UV spectrum of the sample plate and the reference plate. All compounds were tested in triplicate.

[7] = Parallel Artificial Membrane Permeability Assay (PAMPA); details: pH 7.4
Method: Parallel Artificial Membrane Permeability Assay (PAMPA) was conducted by Biomek FX lab automation workstation (Beckman Coulter, Inc.) and PAMPA evolution 96 command software (pION Inc.). A 3 µL aliquot of […] test compound stock in DMSO was mixed with 597 µL of isotonic citrate phosphate buffered saline to make diluted test compound. Diluted test compound (150 µL) was transferred to a UV plate (pION Inc.) and the UV spectrum was read as the reference plate. The membrane on a pre-loaded PAMPA sandwich (pION Inc.) was painted with 4 µL GIT lipid (pION Inc.). The acceptor chamber was then filled with 200 µL acceptor solution buffer, (pION Inc.), and the donor chamber was filled with 180 µL diluted test compound. The PAMPA sandwich was assembled, placed on the Gut-Box and stirred for 30 min. The Aqueous Boundary Layer was set to 40 µm for stirring. The UV spectrum (250-500 nm) of the donor and the acceptor solutions were recorded. The permeability coefficient was calculated using PAMPA Evolution 96 Command software (pION Inc.) based on the AUC of the reference plate, the donor plate and the acceptor plate. All compounds were tested in triplicate.

[8] = in vitro; details: pH 1
Method: Compound stocks were 10 mM in DMSO. The internal standard was 5 µM warfarin in methanol. […] 1 ml SGF was added to a 1.1 ml 96-well storage plate and mixed well with 10 µl compound stock. The plate was then incubated at 37 °C and shaken at 60 rpm. […] At each time point, 100 µl was removed to a 1 ml storage plate and 300 µl internal standard was added to quench the reaction. […] The compound was detected by SIR and quantification was based on peak area of test compound and the internal standard.

[9] = Liver microsomal stability, mouse; details: female, microsomes, pH 7.4
Method: (§2) One part of 10 mM DMSO compound stock was mixed with 4 parts of acetonitrile to make 2 mM diluted compound stock in DMSO and acetonitrile. 29.1 µL diluted compound stock was added to 2.3 mL liver microsomal solution and vortexed to make microsomal solution with compound. […] For the 0 h time point, 450 µL pre-cooled (4 °C) internal standard (10 µM warfarin in methanol) was added to the first three columns before the reaction was initiated. 1.25 ml of microsome assay solution A (Fisher Scientific, #NC9255727) was combined with 0.25 ml of solution B (Fisher Scientific, #NC9016235) in 3.5 ml of potassium phosphate buffer (0.1 M, pH 7.4). 45 µL of this A+B solution was added to each well of the 96-well storage plate (reaction plate). Liquid in the first 3 columns was moved to another storage plate (quenched plate). The reaction plate was then sealed, incubated at 37 °C, and shaken at a speed of 60 rpm. Time points (0.5 h, 1 h, 2 h) were taken. At each time point, 450 µL pre-cooled internal standard was added to 3 rows in the reaction plate, and the liquid was then transferred to the quenched plate. […] 200 µL supernatant was transferred to a 96-well plate and analyzed by ultra-performance liquid chromatography-mass spectrometry (UPLC-MS) (Waters Inc.). The compounds and internal standard were detected by selected ion recording (SIR).

[10] = Liver microsomal stability, rat; details: microsomes, pH 7.4
Method: as §2

[11] = Liver microsomal stability, human; details: both, microsomes, pH 7.4
Method: as §2

[12] = Caco-2 permeability assay; assay type: in vitro ADME; details: human, pH 7.4; for Papp A→B at 2 h, 10 μmol/L / Papp B→A at 2 h, 10 μmol/L: mean ± standard deviation of three runs; for Papp A→B at 2 h, 10 μmol/L: read-out: Caco-2 (A→B) permeability coefficient; for Papp B→A at 2 h, 10 μmol/L: read-out: Caco-2 (B→A) permeability coefficient
[13] = system: L. mexicana; test: Efficacy in murine model of cutaneous leishmaniasis (footpad lesion size); assay type: in vivo; details: BALB/c mice infected with L. mexicana; 20 mg/kg daily oral gavage for 10 days from week 4; measured weeks 4–12
Method: Female BALB/c mice (~20 g) were injected in one hind footpad with 1 x 10^6 stationary phase promastigotes suspended in 25 μl of phosphate buffered saline (PBS). Four weeks after infection, when a small cutaneous lesion was visible in the injected footpad, cohorts of five mice were treated with either compound or vehicle alone (90 μl), delivered daily for 10 consecutive days by oral gavage using a 20-gauge x 30 mm disposable plastic feeding needle. Vehicle consisted of 10/10/40/39 mixture of ethanol/(PG)/PEG400/PBS plus 1% (weight/volume) 2HβCD (PG is propylene glycol, PEG is polyethylene glycol, 2HβCD is 2-hydroxy-β-cyclodextran). The daily dose for each compound was: compound 4, 25 mg/kg; compound 5, 30 mg/kg; miltefosine, 20 mg/kg. The width of the footpad (top to bottom) was measured with calipers before injection of parasites (day 0) and weekly from weeks 4–12. The width of the uninfected contralateral footpad was also measured each week, and its width was subtracted from that of the infected footpad to determine lesion size.

Structure (SMILES) | EC50 [1] | EC50 [2] | EC50 [4] | EC50 [5] | solubility at 18 h [6] | half-life at 99 µM ([8]; simulated gi fluid) | half-life at 20 μM [9] | half-life at 20 μM [10] | half-life at 20 μM [11] | Papp A→B at 2 h, 10 μmol/L ([12]; Caco-2) | Papp B→A at 2 h, 10 μmol/L ([12]; Caco-2) | further results
Cc1ccc(-c2cc3c(c(OCC4CCCN(C)C4)c2)OCCN(C(=O)Cc2c(C)noc2C)C3)s1 (stereo not shown) [Compound 8] | 23 ± 18 nM | 1.1 ± 0.8 nM | 2200 ± 1400 nM | 330 nM |  |  |  |  |  |  |  | EC50 ([3]; Trypanosoma brucei): 300 ± 80 nM; EC50 [3]: < 300 nM
Oc1c(C(Nc2ccccn2)c2cccc(Cl)c2Cl)ccc2cccnc12 (stereo not shown) [Compound 9] | 100 ± 10 nM | 15 ± 9 nM | 9000 ± 6000 nM | 2100 ± 70 nM |  |  |  |  |  |  |  | 
CCCSc1ccc2nc(NC(=O)OC)[nH]c2c1 [albendazole] |  |  |  |  | 3.8 µM (≈ 1.01 µg/mL) | > 24 h | 0.7 h | 1.62 h | > 4 h |  |  | Papp at 30 min, 0.05 µM [7]: 204 ×10⁻⁶ cm/s
NC(=O)N1c2ccccc2C=Cc2ccccc21 [carbamazepine] |  |  |  |  |  |  |  |  |  | 71.8 ± 1.2 ×10⁻⁶ cm/s | 56.5 ± 3.2 ×10⁻⁶ cm/s | solubility at 18 h ([6]; citrate phosphate buffered saline): 82.2 µM (≈ 19.4 µg/mL); Papp at 30 min, 0.05 µM ([7]; PAMPA): 95.6 ×10⁻⁶ cm/s; efflux ratio at 2 h, 10 μmol/L ([12]; Caco-2, pH 7.4, Papp B→A / Papp A→B): 0.79; half-life at 99 µM ([8]; simulated gastric fluid with pepsin): > 24 h; half-life at 20 μM ([9]; mouse): > 4 h; half-life at 20 μM ([10]; rat): > 4 h; half-life at 20 μM ([11]; human): > 4 h
C[C@H]1O[C@@H](O[C@H]2[C@@H](O)C[C@H](O[C@H]3[C@@H](O)C[C@H](O[C@H]4CC[C@@]5(C)[C@H](CC[C@@H]6[C@@H]5C[C@@H](O)[C@]5(C)[C@@H](C7=CC(=O)OC7)CC[C@]65O)C4)O[C@@H]3C)O[C@@H]2C)C[C@H](O)[C@@H]1O [digoxin] |  |  |  |  | 80.3 µM (≈ 62.7 µg/mL) | > 24 h | > 4 h | > 4 h | > 4 h | 4.61 ± 0.46 ×10⁻⁶ cm/s | 27.1 ± 2.1 ×10⁻⁶ cm/s | efflux ratio at 2 h, 10 μmol/L ([12]; Caco-2, Papp B→A / Papp A→B): 5.87
CCCCCCCCCCCCCCCCOP(=O)([O-])OCC[N+](C)(C)C [miltefosine, reference compound] |  |  |  |  |  |  |  |  |  |  |  | Cutaneous lesion size (footpad width) [13]: reduced lesion size from the initial dimension
